From US10675321B2, “Botanical extracts and compounds from Castanea plants and methods of use” (priority 2015, dated 2020) come the findings set out here.

In brackets after ≈: the same amount, converted by molar mass.

Common to all, as to type: cell-based
Assay [1] concerns Staphylococcus aureus AH1872. Kind of assay: microbe, parasite or virus in culture. The conditions noted are these: AH1872, 18 h.
The subject of assay [2] is Staphylococcus aureus AH430. Description: MIC by microtiter broth dilution, strain AH430. The conditions noted are these: 18 hrs static; for MIC50: at least 50% inhibition of growth by OD; for MIC90: at least 90% inhibition of growth by OD. For orientation: Dilution methods test growth across graded concentrations, often in twofold steps.
The test system of assay [3] is Propionibacterium acnes ATCC6919. Kind of assay: Growth inhibition (MIC) of Propionibacterium acnes ATCC6919. The conditions noted are these: Cutibacterium acnes.
Assay [4] concerns Propionibacterium acnes HL005PA2. Description: Growth inhibition (MIC) of Propionibacterium acnes HL005PA2. As to conditions: Cutibacterium acnes, P. acnes HL005PA2.
The test system of assay [5] is Staphylococcus aureus UAMS-1. Description: MIC by microtiter broth dilution, strain UAMS-1. The conditions noted are these: 18 hrs static.
Assay [6] has as its system Staphylococcus aureus AH1747. Description: MIC by microtiter broth dilution, strain AH1747. As to conditions: 18 hrs static.

With `CC1(C)S[C@@H]2[C@H](NC(=O)[C@H](N)c3ccccc3)C(=O)N2[C@H]1C(=O)O` [Amp, Ampicillin], the MIC50 in assay [1] stood at 4 µg/mL (≈ 11.4 µM); in assay [2], 0.0625 µg/mL (≈ 0.179 µM). The MIC90 in assay [1] turned out to be 8 µg/mL (≈ 22.9 µM); in assay [2] it was 0.125 µg/mL (≈ 0.358 µM).
For the molecule `CCC[C@@H]1C[C@@H](C(=O)N[C@@H]([C@H]2O[C@H](SC)[C@H](O)[C@@H](O)[C@H]2O)[C@H](C)Cl)N(C)C1` [Clin, clindamycin], the MIC50 turned out to be 0.125 µg/mL (≈ 0.294 µM) in assay [3] and 0.0625 µg/mL (≈ 0.147 µM) in assay [4] (50% inhibition of the growth control). Moreover, the results for the MIC90 in assay [3] and in assay [4] (90% inhibition) were 0.125 µg/mL (≈ 0.294 µM) and 0.25 µg/mL (≈ 0.588 µM), respectively.
For `NC[C@H]1O[C@H](O[C@H]2[C@H](O)[C@@H](O[C@H]3O[C@H](CO)[C@@H](O)[C@H](N)[C@H]3O)[C@H](N)C[C@@H]2N)[C@H](O)[C@@H](O)[C@@H]1O` [Kan, Kanamycin], the MIC50 in assay [1] was 1 µg/mL (≈ 2.06 µM); in assay [5] (UAMS1, 50% inhibition of growth) it was 2 µg/mL (≈ 4.13 µM); in assay [2], 2 µg/mL (≈ 4.13 µM); in assay [6] (50% inhibition of growth), 1 µg/mL (≈ 2.06 µM). The MIC90 was determined as 4 µg/mL (≈ 8.26 µM) in assay [1]; 4 µg/mL (≈ 8.26 µM) in assay [5] (UAMS1, 90% inhibition of growth); 4 µg/mL (≈ 8.26 µM) in assay [2]; 2 µg/mL (≈ 4.13 µM) in assay [6] (90% inhibition of growth).
